Results published in PMC5855801, “Benzothiophenone Derivatives Targeting Mutant Forms of Estrogen Receptor-α in Hormone-Resistant Breast Cancers” (International Journal of Molecular Sciences, 2018).

Assays:
[1] = target: T1, glucocorticoid receptor (GR) (Homo sapiens, UniProt P04150); assay: Luciferase reporter selectivity assay in PC3 cells, GR; assay type: cell-based; settings: 24 h
T1 construct: expressed in transfected cells; host or cells: PC3
T1 sequence (P04150 1-777): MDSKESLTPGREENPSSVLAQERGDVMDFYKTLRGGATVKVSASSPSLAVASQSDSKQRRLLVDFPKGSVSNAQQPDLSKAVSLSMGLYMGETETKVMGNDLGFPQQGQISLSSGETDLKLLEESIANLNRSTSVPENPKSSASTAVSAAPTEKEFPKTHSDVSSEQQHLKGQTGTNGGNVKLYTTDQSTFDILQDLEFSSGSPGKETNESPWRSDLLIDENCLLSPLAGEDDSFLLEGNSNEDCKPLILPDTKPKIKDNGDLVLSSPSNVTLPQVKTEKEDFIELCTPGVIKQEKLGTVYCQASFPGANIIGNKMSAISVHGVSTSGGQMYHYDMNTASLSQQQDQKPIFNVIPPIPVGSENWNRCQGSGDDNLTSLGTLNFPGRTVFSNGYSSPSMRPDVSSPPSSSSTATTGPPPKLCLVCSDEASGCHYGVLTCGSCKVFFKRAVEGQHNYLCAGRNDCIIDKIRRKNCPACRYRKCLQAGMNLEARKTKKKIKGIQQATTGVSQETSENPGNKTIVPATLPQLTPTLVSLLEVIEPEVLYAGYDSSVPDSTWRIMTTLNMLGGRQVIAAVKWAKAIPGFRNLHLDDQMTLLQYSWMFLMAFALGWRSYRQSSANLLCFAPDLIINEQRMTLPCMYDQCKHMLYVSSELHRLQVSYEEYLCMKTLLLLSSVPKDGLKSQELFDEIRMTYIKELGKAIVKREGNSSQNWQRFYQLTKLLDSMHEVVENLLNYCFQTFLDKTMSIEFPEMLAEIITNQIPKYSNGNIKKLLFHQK
Experimental: Figure 4 Further activity profile of VPC-16606. (A,B) Chromatin immunoprecipitation (ChIP) analysis of ERα binding to the pS2 enhancer, or the GAPDH promoter, in MCF7 cells. Where indicated, ERα was stimulated with 1 nM E2 or dimethyl sulfoxide (DMSO) alone, and the compound was administered at a 6 μM concentration. Sheared chromatin-protein complexes were precipitated with the ERα antibody, reverse cross-linked and analyzed by quantitative PCR. The results are normalized as fold enrichment over precipitation with a rabbit isotype control IgG antibody for each condition tested. Error bars indicate standard error of the mean (SEM) for 3 independent experiments performed in triplicates. Fold enrichment from the compound tested condition (ERα antibody) was statistically compared against DMSO + E2 with a two-tailed t-test (unpaired) *** indicates p-value <0.001. (C) Specificity of VPC-16606 was evaluated in the luciferase reporter assay. PC3 cells were transfected with plasmids expressing androgen receptor (AR), progesterone receptor (PR) or glucocorticoid receptor (GR) along with their responsive luciferase reporter constructs bearing androgen response element (ARE), progesterone response element (PRE) or glucocorticoid response element (GRE), respectively. […] Y-axis represents relative luminescence (RLU) after normalizing to constitutive renilla reporter. […]

[2] = test system: ERα binding to the pS2 enhancer; assay: Chromatin immunoprecipitation (ChIP) in MCF7 cells; assay type: cell-based, human; settings: MCF7, 6 μM, 24 h, 1 nM E2, compared to E2 alone
Experimental: To test this hypothesis, we performed chromatin immunoprecipitation (ChIP) assays in MCF7 cells. The cells were treated for 24 h with vehicle and E2 either alone or in combination with VPC-16606.
E2-deprived MCF7 cells (1 × 10^7 cells per 10 cm plate) were treated for 24 h with DMSO alone, DMSO + E2 or compound + E2. One percent formaldehyde was added for 10 min at room temperature to perform DNA-protein crosslinking and quenched by treatment with 125 mM glycine for 5 min. Cell lysates sonicated with Sonic Dismembrator 550 instrument (Thermo Fisher Scientific, Waltham, MA, USA) to yield DNA fragments of 200–1000 bp in size. Lysates (from 3.3 × 10^6 cells) were immunoprecipitated with […] of anti-ERα antibody or […] of rabbit isotype control IgG (Santa Cruz Biotechnology, Dallas, TX, USA) using the EZ-ChIP chromatin immunoprecipitation kit (Millipore, Billerica, MA, USA). Bound DNA was quantified by qPCR (SYBR Green master mix, Invitrogen, Carlsbad, CA, USA) using the following primer sets: pS2 enhancer, forward 5′-[…]-3′ and reverse 5′-AGGGCGTGACACCAGGAAA-3′; GAPDH promoter, forward 5′-[…]-3′ and reverse 5′-TCGAACAGGAGCAGA GAGCGA-3′. The qPCR results are presented as fold enrichment of PCR amplification over control IgG antibody and normalized based on the total input (no precipitated chromatin). Primers for the GAPDH promoter were used as a negative control.

[3] = test system: pS2, PR, Cyclin D1 and CDC2 proteins; assay: Western blotting in MCF7 cells; assay type: cell-based, human; settings: MCF7, 24 h, effect at higher doses
Experimental: Serum-starved MCF7 and TamR3 cells were seeded onto a six-well plate at a density of 6 × 10^5 cells/well and treated the following day with VPC-16606 in the presence of 1 nM E2. One micromolar OHT was used as the positive control. After 24 h, cells were lysed in 1× radioimmunoprecipitation assay (RIPA) buffer. Twenty five micrograms of protein were loaded into SDS-PAGE gels and transferred to PVDF membranes. Membranes were incubated with pS2, PR Cyclin D1 and CDC2 antibodies or control α-actin antibody. Bound antibodies were detected using HRP-conjugated secondary antibodies. Chemiluminescence was detected with an Amersham ECL detection kit (GE Healthcare Life Sciences, Chicago, IL, USA), and bands were visualised using the G:BOX imager (Syngene, Cambridge, UK).

CC(=O)N(/N=C1\Sc2c(C)cccc2C1=O)c1ccccc1Cl [VPC-16606]
Effect on GR activity (luciferase) ([1]; 50 µM): some effect | Effect on GR activity (luciferase) ([1]; doses up to 25 µM): does not affect the activity | ERα pull down of the promoter of pS2 (ChIP) [2]: significantly reduced | Expression of pS2, PR, Cyclin D1 and CDC2 proteins (Western blot) [3]: decreased expression
